According to ChEMBL document CHEMBL1121440, “Soft drugs. 2. Soft alkylating compounds as potential antitumor agents” (1980):

Tests used:
Format in all cases: functional
Settings in all cases: P388, ip, route intraperitoneal
Mus musculus [1] = experiment: Evaluated for % increase in median survival rate against P388 Lymphocytic Leukemia at a dose of 100 mg/kg administered intraperitoneally
Mus musculus [2] = experiment: Evaluated for % increase in median survival rate against P388 Lymphocytic Leukemia at a dose of 200 mg/kg administered intraperitoneally
Mus musculus [3] = experiment: Evaluated for % increase in median survival rate against P388 Lymphocytic Leukemia at a dose of 400 mg/kg administered intraperitoneally
Mus musculus [4] = experiment: Evaluated for % increase in median survival rate against P388 Lymphocytic Leukemia at a dose of 50 mg/kg administered intraperitoneally

With `CCCCCCC(=O)OCCl` [HEPTANOIC ACID CHLOROMETHYL ESTER] the ILS at 100 mg/kg (Mus musculus [1]) was 120%, the ILS at 200 mg/kg (Mus musculus [2]) was 127% and the ILS at 400 mg/kg (Mus musculus [3]) was 109%. The ILS at 50 mg/kg (Mus musculus [4]) was 107%.
